Reference: article PMC9127185, “A Pyridazinone Compound for Effectively Treating Non-alcoholic Steatohepatitis by Targeting THRβ” (Frontiers in Chemistry, 2022)
“Also recorded” adds a separate entry of the source.

Columns and labels:
[1] = Stability of YWS01125 in mouse plasma under storage conditions; format: in vitro ADME; settings: for Accuracy (RE) after storage / Concentration found after storage, Mean ± SD: mouse plasma
Procedure: The validation was carried out by the US Food and Drug Administration bioanalytical method guidance ([Bioanalytical Method Validation, 2018]; [US Food and Drug Administration, 2018]; [Chen et al., 2019]), namely evaluating selectivity, linearity, accuracy and precision, recovery, matrix effect, and stability. Selectivity was assessed by contrasting the normal blank plasma samples' and analyst plasma samples' chromatograms from six different specimens. Linearity was appraised by different concentrations of the standard medicated plasma samples for 3 days continuously. The peak area was recorded ([Booth et al., 2015]), and weighted (1/x^2) least-squares analysis was used to acquire the standard curve equations. The accuracy and precision were assessed by three different (low, medium, and high) QC samples by diluting with acetonitrile; each concentration had six samples and was continuously accessed for 3 days, and the accuracy, intra-day precision, and inter-day precision were obtained. Recovery was evaluated by comparing the peak area of protein precipitated with acetonitrile first and finally using it to calculate the recovery of the analyst. The matrix effect was measured by comparing the analyst peak area with the saline solution samples and QC samples at the three concentrations. The stability was assessed by defining the three QC levels in several different storage conditions: at room temperature for 6 h, injector stability at 15 °C for a whole night, and after three freeze–thaw cycles.
This experiment investigated the stability of YWS01125 in the mouse plasma at different temperature conditions, namely the auto sampler (15°C) for 12 h of injector stability, room temperature for 6 h, and three freeze–thaw cycles. […] The measured results of YWS01125 are all within the acceptable limits during the entire process (Table 3).

[2] = molecular target: T1, THRβ (Homo sapiens, UniProt P10828); test: Selectivity and activity for THRβ; settings: in words, no data shown
T1 sequence (P10828 1-461): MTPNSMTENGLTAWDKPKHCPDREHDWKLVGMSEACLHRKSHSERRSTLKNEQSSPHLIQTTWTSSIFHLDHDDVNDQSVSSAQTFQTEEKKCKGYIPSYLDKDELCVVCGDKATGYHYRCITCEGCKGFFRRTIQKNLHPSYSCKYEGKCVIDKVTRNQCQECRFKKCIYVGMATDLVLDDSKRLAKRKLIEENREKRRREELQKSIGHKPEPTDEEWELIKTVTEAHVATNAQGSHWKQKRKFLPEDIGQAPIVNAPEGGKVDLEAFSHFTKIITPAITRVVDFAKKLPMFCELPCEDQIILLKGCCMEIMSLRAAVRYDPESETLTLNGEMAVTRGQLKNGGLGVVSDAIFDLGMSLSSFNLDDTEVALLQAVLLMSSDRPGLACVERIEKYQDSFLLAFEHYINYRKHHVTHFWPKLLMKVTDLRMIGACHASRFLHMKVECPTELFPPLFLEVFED

[3] = injector stability (15°C, 12 h), added 10 ng/ml
[4] = injector stability (15°C, 12 h), added 50 ng/ml
[5] = injector stability (15°C, 12 h), added 300 ng/ml
[6] = room temperature for 6 h, added 10 ng/ml
[7] = room temperature for 6 h, added 300 ng/ml
[8] = three freeze–thaw cycles, added 10 ng/ml
[9] = three freeze–thaw cycles, added 50 ng/ml
[10] = three freeze–thaw cycles, added 300 ng/ml

## N#Cc1cn(-c2cc(Cl)c(Oc3cc(C4CCC4)c(=O)[nH]n3)c(Cl)c2)c(=O)[nH]c1=O [YWS01125, 1-(3,5-dichloro-4-((5-cyclobutyl-6-oxo-1,6-dihydropyridazin-3-yl)oxy)phenyl)-2,4-dioxo-1,2,3,4-tetrahydropyrimidine-5-carbonitrile]
[1]; auto sampler 15°C 12 h, room temperature 6 h, three freeze–thaw cycles
  Stability in mouse plasma (in words): maintains stability
[1]; [3]
  Accuracy (RE) after storage: 5.00%
  Concentration found after storage, Mean ± SD: 10.67 ± 0.52 ng/mL
[1]; [4]
  Accuracy (RE) after storage: −4.68%
  Concentration found after storage, Mean ± SD: 49.91 ± 2.15 ng/mL
[1]; [5]
  Accuracy (RE) after storage: −1.60%
  Concentration found after storage, Mean ± SD: 295.17 ± 29.36 ng/mL
[1]; [6]
  Accuracy (RE) after storage: 1.20%
  Concentration found after storage, Mean ± SD: 10.29 ± 0.82 ng/mL
[1]; room temperature for 6 h, added 50 ng/ml
  Concentration found after storage, Mean ± SD: 52.62 ± 1.73 ng/mL
[1]; [7]
  Accuracy (RE) after storage: 3.88%
  Concentration found after storage, Mean ± SD: 299.33 ± 10.07 ng/mL
[1]; [8]
  Accuracy (RE) after storage: −1.80%
  Concentration found after storage, Mean ± SD: 9.45 ± 0.57 ng/mL
[1]; [9]
  Accuracy (RE) after storage: −2.20%
  Concentration found after storage, Mean ± SD: 47.80 ± 3.96 ng/mL
[1]; [10]
  Accuracy (RE) after storage: −2.66%
  Concentration found after storage, Mean ± SD: 289.17 ± 12.77 ng/mL
[2]
  Selectivity and activity for THRβ: excellent activity; also recorded: best selectivity and activity
